Values joined by “and” are separate entries in the source; they are usually repeats but may differ in a detail not shown here. Equal entries are not always repeated. Values belong to the molecule of their own block, whether it stands above or below them. Active and inactive are the calls of the source. Rule for the calls: active = viability on the fitted dose curve at most 10% of control; inactive = the rest.
Test system: CN0375-F725-PDC multi-cell spheroids, viability
Test: Anticancer human tumor CN0375-F725-PDC patient-derived colon carcinoma cell line growth inhibition [TAK]
Conditions: for viability, T/C: stronger effect = lower value
Outline: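 Tumor cells were grown as spheroids with HUVEC and hMSC (60:25:15) and treated with targeted agents combined with TAK-243 or ipatasertib. Drugs were tested in half-log steps down from near the clinical Cmax, or from 10 microM where Cmax was unknown.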

[1] = curve of first compound, second compound 0.3 µM
[2] = curve of first compound, second compound 0.949 µM
[3] = curve of first compound, second compound 3 µM
[4] = curve of first compound, second compound 9.49 µM
[5] = curve of first compound, second compound 30 µM
[6] = second compound 0.3 µM, first compound 0.000316 µM
[7] = second compound 0.3 µM, first compound 0.001 µM
[8] = second compound 0.3 µM, first compound 0.00316 µM
[9] = second compound 0.3 µM, first compound 0.01 µM
[10] = second compound 0.3 µM, first compound 0.0316 µM
[11] = second compound 0.3 µM, first compound 0.1 µM
[12] = second compound 0.949 µM, first compound 0.000316 µM
[13] = second compound 0.949 µM, first compound 0.001 µM
[14] = second compound 0.949 µM, first compound 0.00316 µM
[15] = second compound 0.949 µM, first compound 0.01 µM
[16] = second compound 0.949 µM, first compound 0.0316 µM
[17] = second compound 0.949 µM, first compound 0.1 µM
[18] = second compound 3 µM, first compound 0.000316 µM
[19] = second compound 3 µM, first compound 0.001 µM
[20] = second compound 3 µM, first compound 0.00316 µM
[21] = second compound 3 µM, first compound 0.01 µM
[22] = second compound 3 µM, first compound 0.0316 µM
[23] = second compound 3 µM, first compound 0.1 µM
[24] = second compound 9.49 µM, first compound 0.000316 µM
[25] = second compound 9.49 µM, first compound 0.001 µM
[26] = second compound 9.49 µM, first compound 0.00316 µM
[27] = second compound 9.49 µM, first compound 0.01 µM
[28] = second compound 9.49 µM, first compound 0.0316 µM
[29] = second compound 9.49 µM, first compound 0.1 µM
[30] = second compound 30 µM, first compound 0.000316 µM
[31] = second compound 30 µM, first compound 0.001 µM
[32] = second compound 30 µM, first compound 0.00316 µM
[33] = second compound 30 µM, first compound 0.01 µM
[34] = second compound 30 µM, first compound 0.0316 µM
[35] = second compound 30 µM, first compound 0.1 µM
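Throughout, for IC50: spheroids exposed to drugs for seven days.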
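Throughout, for viability, T/C: spheroids exposed to drugs for seven days; 100% = DMSO vehicle control wells.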

SMILES: CC(C)CC(NC(=O)CNC(=O)c1cc(Cl)ccc1Cl)B1OC(=O)CC(CC(=O)O)(C(=O)O)O1 (centres undefined) + CC(C)NCC(C(=O)N1CCN(c2ncnc3c2C(C)CC3O)CC1)c1ccc(Cl)cc1
- IC50 [1]: 49.3 nM
- IC50 [2]: 43.2 nM
- IC50 [3]: 45.8 nM
- IC50 [4]: 30.6 nM
- IC50 [5]: 17.5 nM
- viability, T/C [6]: 102%
- viability, T/C [7]: 104%
- viability, T/C [8]: 108%
- viability, T/C [9]: 99.4%
- viability, T/C [10]: 68.4%
- viability, T/C [11]: 20.7%
- viability, T/C [12]: 102%
- viability, T/C [13]: 99.8%
- viability, T/C [14]: 102%
- viability, T/C [15]: 98.8%
- viability, T/C [16]: 60.3%
- viability, T/C [17]: 22.4%
- viability, T/C [18]: 91.8%
- viability, T/C [19]: 101%
- viability, T/C [20]: 96.7%
- viability, T/C [21]: 101%
- viability, T/C [22]: 65.9%
- viability, T/C [23]: 16.4%
- viability, T/C [24]: 86%
- viability, T/C [25]: 92.5%
- viability, T/C [26]: 93.4%
- viability, T/C [27]: 93.6%
- viability, T/C [28]: 48.8%
- viability, T/C [29]: 15.6%
- viability, T/C [30]: 77.9%
- viability, T/C [31]: 91.7%
- viability, T/C [32]: 88.2%
- viability, T/C [33]: 76.2%
- viability, T/C [34]: 22.2%
- viability, T/C [35]: 5.95%

SMILES: COC1CC2CCC(C)C(O)(O2)C(=O)C(=O)N2CCCCC2C(=O)OC(C(C)CC2CCC(OCCO)C(OC)C2)CC(=O)C(C)C=C(C)C(O)C(OC)C(=O)C(C)CC(C)C=CC=CC=C1C (centres undefined) + CC(C)NCC(C(=O)N1CCN(c2ncnc3c2C(C)CC3O)CC1)c1ccc(Cl)cc1
- IC50 [1]: > 100 nM
- IC50 [2]: > 100 nM
- IC50 [3]: > 100 nM
- IC50 [4]: > 100 nM
- IC50 [5]: > 100 nM
- viability, T/C [6]: 97.5%
- viability, T/C [7]: 95.1%
- viability, T/C [8]: 89.1%
- viability, T/C [9]: 82.5%
- viability, T/C [10]: 81.1%
- viability, T/C [11]: 81.1%
- viability, T/C [12]: 99%
- viability, T/C [13]: 94.8%
- viability, T/C [14]: 84.5%
- viability, T/C [15]: 81.1%
- viability, T/C [16]: 78.3%
- viability, T/C [17]: 78.2%
- viability, T/C [18]: 88.7%
- viability, T/C [19]: 83.9%
- viability, T/C [20]: 83.9%
- viability, T/C [21]: 77.8%
- viability, T/C [22]: 77.4%
- viability, T/C [23]: 75.9%
- viability, T/C [24]: 83.3%
- viability, T/C [25]: 84.1%
- viability, T/C [26]: 80.7%
- viability, T/C [27]: 71.1%
- viability, T/C [28]: 76%
- viability, T/C [29]: 71%
- viability, T/C [30]: 71.3%
- viability, T/C [31]: 76.8%
- viability, T/C [32]: 72.2%
- viability, T/C [33]: 63.5%
- viability, T/C [34]: 75.8%
- viability, T/C [35]: 68.5%

SMILES: CC(C)(C)c1nc(-c2cccc(NS(=O)(=O)c3c(F)cccc3F)c2F)c(-c2ccnc(N)n2)s1 + CC(C)NCC(C(=O)N1CCN(c2ncnc3c2C(C)CC3O)CC1)c1ccc(Cl)cc1
- IC50 [1]: > 10000 nM
- IC50 [2]: > 10000 nM
- IC50 [3]: > 10000 nM
- IC50 [4]: > 10000 nM
- IC50 [5]: > 10000 nM
- viability, T/C [10]: 121%
- viability, T/C [11]: 128%
- viability, T/C (second compound 0.3 µM, first compound 0.316 µM): 124%
- viability, T/C (second compound 0.3 µM, first compound 1 µM): 118%
- viability, T/C (second compound 0.3 µM, first compound 3.16 µM): 105%
- viability, T/C (second compound 0.3 µM, first compound 10 µM): 108%
- viability, T/C [16]: 123%
- viability, T/C [17]: 125%
- viability, T/C (second compound 0.949 µM, first compound 0.316 µM): 120%
- viability, T/C (second compound 0.949 µM, first compound 1 µM): 111%
- viability, T/C (second compound 0.949 µM, first compound 3.16 µM): 95%
- viability, T/C (second compound 0.949 µM, first compound 10 µM): 107%
- viability, T/C [22]: 108%
- viability, T/C [23]: 119%
- viability, T/C (second compound 3 µM, first compound 0.316 µM): 120%
- viability, T/C (second compound 3 µM, first compound 1 µM): 103%
- viability, T/C (second compound 3 µM, first compound 3.16 µM): 94.9%
- viability, T/C (second compound 3 µM, first compound 10 µM): 92.1%
- viability, T/C [28]: 98%
- viability, T/C [29]: 108%
- viability, T/C (second compound 9.49 µM, first compound 0.316 µM): 105%
- viability, T/C (second compound 9.49 µM, first compound 1 µM): 97.9%
- viability, T/C (second compound 9.49 µM, first compound 3.16 µM): 85.4%
- viability, T/C (second compound 9.49 µM, first compound 10 µM): 86.2%
- viability, T/C [34]: 94.3%
- viability, T/C [35]: 102%
- viability, T/C (second compound 30 µM, first compound 0.316 µM): 89.6%
- viability, T/C (second compound 30 µM, first compound 1 µM): 79.3%
- viability, T/C (second compound 30 µM, first compound 3.16 µM): 77.7%
- viability, T/C (second compound 30 µM, first compound 10 µM): 75%

- IC50 (curve of compound): > 10000 nM and 9170 nM
SMILES: Cc1nc(NC(=O)N2CCCC2C(N)=O)sc1-c1ccnc(C(C)(C)C(F)(F)F)c1 (centres undefined)
- viability, T/C (compound 0.0316 µM): 102% and 105%
- viability, T/C (compound 0.1 µM): 93.8% and 98.5%
- viability, T/C (compound 0.316 µM): 92.2% and 85.6%
- viability, T/C (compound 1 µM): 85.7% and 77.4%
- viability, T/C (compound 3.16 µM): 68.3% and 65.6%
- viability, T/C (compound 10 µM): 57.7% and 47.6%

SMILES: CC(C)CC(NC(=O)C(Cc1ccccc1)NC(=O)c1cnccn1)B(O)O (centres undefined) + CC(C)NCC(C(=O)N1CCN(c2ncnc3c2C(C)CC3O)CC1)c1ccc(Cl)cc1
- IC50 [1]: 7.39 nM
- IC50 [2]: 7.9 nM
- IC50 [3]: 7.86 nM
- IC50 [4]: 5.85 nM
- IC50 [5]: 2.49 nM
- viability, T/C (second compound 0.3 µM, first compound 31.6 pM): 100%
- viability, T/C (second compound 0.3 µM, first compound 0.0001 µM): 99%
- viability, T/C [6]: 93.6%
- viability, T/C [7]: 99.5%
- viability, T/C [8]: 92.1%
- viability, T/C [9]: 34.9%
- viability, T/C (second compound 0.949 µM, first compound 31.6 pM): 99.6%
- viability, T/C (second compound 0.949 µM, first compound 0.0001 µM): 101%
- outcome [12]: inactive
- viability, T/C [13]: 90.3%
- viability, T/C [14]: 93%
- viability, T/C [15]: 38.8%
- viability, T/C (second compound 3 µM, first compound 31.6 pM): 89.3%
- viability, T/C (second compound 3 µM, first compound 0.0001 µM): 93%
- viability, T/C [18]: 91.8%
- viability, T/C [19]: 93.1%
- viability, T/C [20]: 82.8%
- viability, T/C [21]: 41.2%
- viability, T/C (second compound 9.49 µM, first compound 31.6 pM): 85.2%
- viability, T/C (second compound 9.49 µM, first compound 0.0001 µM): 95.3%
- viability, T/C [24]: 87.2%
- viability, T/C [25]: 93.6%
- viability, T/C [26]: 76.7%
- viability, T/C [27]: 26.6%
- viability, T/C (second compound 30 µM, first compound 31.6 pM): 72.3%
- viability, T/C (second compound 30 µM, first compound 0.0001 µM): 86.8%
- viability, T/C [30]: 84.4%
- viability, T/C [31]: 76.6%
- viability, T/C [32]: 42.9%
- viability, T/C [33]: 9.84%

- IC50 (compound alone, run of 02/28/2020): > 30000 nM
- IC50 (compound alone, run of 03/19/2020): > 30000 nM
SMILES: CC(C)NCC(C(=O)N1CCN(c2ncnc3c2C(C)CC3O)CC1)c1ccc(Cl)cc1 (centres undefined)
- viability, T/C (compound 0.3 µM): 97.1% [middle of 10 runs]
- viability, T/C (compound 0.949 µM): 93.7% [middle of 10 runs]
- viability, T/C (compound 3 µM): 91.4% [middle of 10 runs]
- viability, T/C (compound 9.49 µM): 84.7% [middle of 10 runs]
- viability, T/C (compound 30 µM): 83.7% [middle of 10 runs]
